Experiments:
[1] = molecular target: T1, catalytic domain of human stromelysin (MMP-3) (Homo sapiens, UniProt P08254); assay: Enzymatic activity of the catalytic domain of human stromelysin (MMP-3), fluorogenic substrate; format: biochemical; conditions: pH 7.5, 15 min preincubation, read-out: Matrix metalloproteinase inhibition MMP-3 (IC50)
T1 construct: Enzymatic Activity of the Catalytic Domain of Human Stromelysin (MMP-3); made in house
Method: (§1) Preparation and Determination of the Enzymatic Activity of the Catalytic Domain of Human Stromelysin (MMP-3) and of Neutrophil Collagenase (MMP-8).
(§2) The two enzymes stromelysin (MMP-3) and neutrophil collagenase (MMP-8) were prepared by the method of Ye et al. (Biochemistry; 31 (1992) pages 11231-11235). The enzymic activity or the effect of the enzyme inhibitor was measured by incubating 10 μl of enzyme solution with 10 μl of a 3% strength (v/v) buffered dimethyl sulfoxide solution which contained the enzyme inhibitor where appropriate, for 15 minutes. After addition of 10 μl of a 3% strength (v/v) aqueous dimethyl sulfoxide solution which contained 1 mmol/l of the substrate, the enzymic reaction was followed by fluorescence spectroscopy (328 nm (ex)/393 nm(em)).
(§3) The enzymic activity is presented as increase in extinction/minute. The IC50 values listed in Table 1 were determined as the inhibitor concentrations leading in each case to 50% inhibition of the enzyme.
(§4) The buffer solution contained 0.05% Brij (Sigma, Deisenhofen, Germany) and 0.1 mol/l of Tris/HCl, 0.1 mol/l of NaCl, 0.01 mol/l of CaCl2 and 0.1 mol/l of piperazine-N,N′-bis[2-ethanesulfonic acid] (pH=7.5).
(§5) The MMP-3 enzyme solution contained 2.3 μg/ml and the MMP-8 enzyme solution 0.6 μg/ml of one of the enzyme domains prepared by the method of Ye et al. The substrate solution contained 1 mmol/l of the fluorogenic substrate (7-methoxycoumarin-4-yl)acetyl-Pro-Leu-Gly-Leu-3-(2′,4′-dinitrophenyl)-L-2,3-diaminopropionyl-Ala-Arg-NH2 (Bachem, Heidelberg, Germany).

[2] = molecular target: T2, catalytic domain of human collagenase-3 (MMP-13) (Homo sapiens, UniProt P45452); assay: Enzymatic activity of the catalytic domain of human collagenase-3 (MMP-13), fluorogenic substrate; format: biochemical; conditions: APMA-activated proenzyme, pH 7.5, read-out: Matrix metalloproteinase inhibition MMP-13 (IC50)
T2 construct: Determination of the Enzymatic Activity of the Catalytic Domain of Human Collagenase-3 (MMP-13); purchased INVITEK, Berlin 30 100 803
Method: Determination of the Enzymatic Activity of the Catalytic Domain of Human Collagenase-3 (MMP-13).
Activation of the proenzyme:
2 parts by volume of proenzyme were incubated with 1 part by volume of APMA solution at 37° C. for 1.5 hours. The APMA solution was prepared from a 10 mmol/l p-aminophenylmercuric acetate solution in 0.1 mmol/l NaOH by dilution with 3 parts by volume of Tris/HCl buffer pH 7.5 (see below). The pH was adjusted to between 7.0 and 7.5 by adding 1 mmol/l HCl. After activation of the enzyme it was diluted with the Tris/HCl buffer to a concentration of 1.67 μg/ml.
The enzymic activity was measured by incubating 10 μl of enzyme solution with 10 μl of a 3% strength (v/v) buffered dimethyl sulfoxide solution (reaction 1) for 15 minutes. The enzyme inhibitor activity was measured by incubating 10 μl of enzyme solution with 10 μl of a 3% strength (v/v) buffered dimethyl sulfoxide solution which contained the enzyme inhibitor (reaction 2).
The enzymic reaction both in the case of reaction 1 and in the case of reaction 2 was followed after addition of 10 μl of a 3% strength (v/v) aqueous dimethyl sulfoxide solution which contains 0.075 mmol/l of the substrate by fluorescence spectroscopy (328 nm (extinction)/393 nm (emission)).
The enzymic activity has been presented as increase in extinction/minute. The effect of the inhibitor was calculated as percentage inhibition by the following formula:
% inhibition=100−[(increase in extinction/minute in reaction 2)/(increase in extinction/minute in reaction 1)×100].
The IC50, which is the concentration of inhibitor which is necessary for 50% inhibition of the enzymic activity, was determined graphically by plotting the percentage inhibitions at various inhibitor concentrations.
The buffer solution contained 0.05% Brij (Sigma, Deisenhofen, Germany) and 0.1 mol/l of Tris/HCl, 0.1 mol/l of NaCl, 0.01 mol/l of CaCl2 (pH=7.5).
The enzyme solution contained 1.67 μg/ml of the enzyme domain. The substrate solution contained 0.075 mmol/l of the fluorogenic substrate (7-methoxycoumarin-4-yl)acetyl-Pro-Leu-Gly-Leu-3-(2′,4′-dinitrophenyl)-L-2,3-diaminopropionyl-Ala-Arg-NH2 (Bachem, Heidelberg, Germany).

[3] = molecular target: T3, catalytic domain of neutrophil collagenase (MMP-8) (Homo sapiens, UniProt P22894); assay: Enzymatic activity of the catalytic domain of neutrophil collagenase (MMP-8), fluorogenic substrate; format: biochemical; conditions: pH 7.5, 15 min preincubation, read-out: Matrix metalloproteinase inhibition MMP-8 (IC50)
T3 construct: Catalytic Domain of Human Stromelysin (MMP-3) and of Neutrophil Collagenase (MMP-8); made in house
T3 sequence (P22894 100-262 limits assumed): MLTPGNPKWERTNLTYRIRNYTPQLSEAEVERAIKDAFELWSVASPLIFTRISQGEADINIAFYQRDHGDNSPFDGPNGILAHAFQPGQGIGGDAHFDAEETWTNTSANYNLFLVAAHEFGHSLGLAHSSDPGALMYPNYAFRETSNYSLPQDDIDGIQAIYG
Method: as §1, §2, §3, §4, §5

[4] = Pharmacokinetic measurements in mice after oral administration (n-in-one study); format: in vivo; conditions: male C57/BL mice, oral by gavage about 7.5 mg per kg in PEG400/water 1:1, n-in-one, plasma
Method: In each case 14 or 16 male C57/BL mice with an average weight of 20 to 28 g were used for the investigation, and divided into two groups. The animals had free access to feed and water. The substances were dissolved in PEG400/water 1:1 and administered orally by gavage in a concentration of about 7.5 mg per kg (equivalent to about […] per animal). In each case, 2 novel compounds and one comparative compound were previously dissolved separately, mixed and administered simultaneously (n-in-one study). Blood samples were taken after 0.25, 0.5, 1, 2, 4, 6, 8 and 24 h, and the substance concentration was determined quantitatively by HPLC-MS under standardized conditions as described below. The individual results were initially combined within the two groups and then the average was formed therefrom. The pharmacokinetic parameters are calculated using the noncompartmental model (extravascular input).
Quantification took place by HPLC-MS-MS. An HPLC system from Agilent (1100) was used, coupled to a PE-Sciex API 4000 (triple quadruple mass spectrometer). The column used was a ProdigyR 5μ ODS, flow rate […], injected volumes 16 μl. Eluent: acetonitrile-0.002% ammonium formate. Detection took place in MS/MS mode (multiple reaction monitoring) focussed on Q1 and selective masses (fragment) filtration on Q3.
Workup of the plasma samples beforehand took place as follows: admixture of 25 μl of 60/40 acetonitrile/0.1% formate plus 25 μl of internal standard 5 μg/ml in the same solvent, plus 25 μl of blank plasma or sample plasma, plus 200 μl of acetonitrile. Mixing for 5 min was followed by centrifugation (3 min, 5000 g) and then pipetting of 200 μl into the measurement vessels.
Cmax is the maximum plasma concentration reached at one of the sampling times. AUC “area under the curve”, time course of the decrease in concentration and Cmax determine the magnitude of the value.

T1 sequence (P08254 100-272 limits assumed): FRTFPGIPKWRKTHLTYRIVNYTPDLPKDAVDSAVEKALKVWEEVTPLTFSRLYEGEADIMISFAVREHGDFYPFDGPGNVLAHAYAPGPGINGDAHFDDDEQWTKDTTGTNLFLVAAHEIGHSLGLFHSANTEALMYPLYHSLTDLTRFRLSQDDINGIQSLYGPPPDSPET

Molecule | IC50 [1] | IC50 [2] | IC50 [3] | AUC [4] | Cmax [4] | t½ [4]
5-[4-(4-Trifluoromethoxyphenoxy)benzenesulfonyl]octahydrofuro[3,2-c]pyridine-4-carboxylic acid [Example 5] | 380 nM | 240 nM | 210 nM |  |  | 
O=C(NO)C1c2ccccc2CCN1S(=O)(=O)c1ccc(Oc2ccc(OC(F)(F)F)cc2)cc1 (stereo not drawn) [Example 3, 2-[4-[4-Trifluoromethoxyphenoxy)benzenesulfonyl]-1,2,3,4-tetrahydroisoquinoline-1-(N-hydroxy)carboxamide] | 28 nM | 2 nM | 3.6 nM | 2.23 µg·h/mL | 1.35 µg/mL | 6.6 h
O=C(NO)C1C2CCCCC2CCN1S(=O)(=O)c1ccc(Oc2ccc(OC(F)(F)F)cc2)cc1 (stereo not drawn) [Example 4, 2-[4-(4-Trifluoromethoxyphenoxy)benzenesulfonyl]decahydroisoquinoline-1-(N-hydroxy)carboxamide] | 69 nM | 4 nM | 14 nM |  |  | 
O=C(NO)C1C2CCOC2CCN1S(=O)(=O)c1ccc(Oc2ccc(OC(F)(F)F)cc2)cc1 (stereo not drawn) [Example 6, 5-[4-(4-Trifluoromethoxyphenoxy)benzenesulfonyl]octahydrofuro[3,2-c]pyridine-4-(N-hydroxy)carboxamide] | 24 nM | 2 nM | 4 nM |  |  | 
O=C(NO)C1C2CCCCC2CCCN1S(=O)(=O)c1ccc(Oc2ccc(OC(F)(F)F)cc2)cc1 (stereo not drawn) [Example 7, 2-[4-(4-Trifluoromethoxyphenoxy)benzenesulfonyl]decahydrobenzo[c]azepine-1-(N-hydroxy)carboxamide] | 24 nM | 2 nM | 4 nM |  |  | 
COc1ccc(Oc2ccc(S(=O)(=O)N3CCc4ccccc4C3C(=O)NO)cc2)cc1 (stereo not drawn) [Example 9, 2-[4-(4-Methoxyphenoxy)benzenesulfonyl]-1,2,3,4-tetrahydroisoquinoline-1-N-hydroxycarboxamide, reference compound] | 23 nM | 2.2 nM | 2.3 nM | 0.25 µg·h/mL | 0.45 µg/mL | 1.5 h
O=C(O)C1c2ccccc2CCN1S(=O)(=O)c1ccc(Oc2ccc(OC(F)(F)F)cc2)cc1 (stereo not drawn) [Example 10, 2-[4-(4-Trifluorophenoxy)benzenesulfonyl]-1,2,3,4-tetrahydroisoquinoline-1-carboxylic acid] |  |  |  | 0.16 µg·h/mL | 0.24 µg/mL | 1.8 h

Source: patent US20100099663A1, “4-TRIFLUOROMETHOXYPHENOXYBENZOL-4'-SULFONIC ACIDS, METHOD FOR THE PRODUCTION AND USE THEREOF IN MEDICAMENTS” (SANOFI-AVENTIS DEUTSCHLAND GMBH, priority 2004, published 2010)
